Experimental data as given in patent publication US10688099B2, “Methods for modulating the amount of RNA transcripts” (PTC Therapeutics, Inc., priority 2013, dated 2020).

Tested on: RNA isoforms in PNN 1-46 SMA type I patient-derived fibroblasts
Test: RNA Abundance Modulation (RNA isoform abundance, iFPM, HiSeq RNA sequencing)
Type: cell-based, human
Conditions: for RNA abundance modulation (effect on isoform fold increase): 24 hrs, PNN 1-46 fibroblasts
Protocol: Cells from a cell line of interest are cultured in conditions sufficient to yield the number of cells capable of generating enough RNA for subsequent sequencing steps. Cells from the tested cell line are contacted with a compound described herein.
To culture said cells, they are seeded, at appropriate concentrations in a volume of media in a cell culture container and incubated for 4, 5, 6, 7, 8, 9, 10, or more hours. A concentrated solution of compound in a vehicle (e.g., DMSO) is then added in sufficient volume to result in the intended final concentration of the compound, for example 100 nM, 500 nM, 1 μM, 5 μM, 10 μM, 15 μM, 20 μM, or more. The cells may also be treated with vehicle alone, as a control. A number of replicates of each concentration or control may be made (e.g., 2 replicates). The cells are then incubated at a constant temperature appropriate for cell culture of the particular cell line (e.g., 37° C.) for 6, 12, 18, 24, 48, or more hours. After incubation, the growth medium is removed and the cells are washed with the appropriate buffer (e.g., PBS). Cells are then removed from adherence to the cell culture container by treatment with a solution containing trypsin, and the trypsin subsequently quenched with the appropriate volume of buffer (e.g., DMEM-FBS). The cells are then pelleted with gentle centrifugation (e.g., ≤90×g centrifugal force) and resuspended in a buffer to lyse the cells for extraction of RNA. The cell lysates may then be frozen (e.g., at −80° C.) or, alternately, may immediately be used in a procedure to purify the RNA (e.g. by use of the RNEASY PLUS® minikit). The RNA from cell lysates is eluted in the appropriate volume of buffer (e.g., RNEASE-FREE H2O®). The resulting purified RNA may then be sequenced (e.g., using RNASeq) or analyzed using a human exon array (e.g., by GENECHIP® human exon array) to determine changes in the RNA levels in those cells treated with compound compared to those cells treated only with DMSO. The purified RNA may also be quantified by other methods known in the art.
Using the RNA data obtained from sequencing, exon array, or other methods, a statistical analysis can reveal changes in the RNA levels of compound-treated compared with control. For example, t-test p-values may be calculated for the data obtained through sequencing and exon array methods in order to compare compound-treated cells to those treated with the DMSO control. […] Analysis of the sequencing and exon array data may then also yield predictions about the cause of the aberrant amount of an RNA transcript in the cells (e.g., perturbation of RNA splicing, RNA transcription, or RNA stability). These predictions may be further confirmed by methods known in the art. For example, RT-PCR and RT-qPCR may be used to confirm the change in amount of RNA transcripts for one or more particular transcripts of interest.
Following the methods described above in Example 1, PNN 1-46 SMA type I patient-derived fibroblasts were treated with 300 nM or 3 μM Compounds 774 and 808 in 0.5% DMSO.
700,000 cells were seeded in 10 mL of medium (DMEM plus 10% FBS) in a T-75 flask. Cells were allowed to attach for at least 4 hrs, after which 50 μL of a 200× compound solution (100% DMSO) was added to each well, and the plate was incubated at 37° C. for 24 hrs.
At the end of the incubation period, the supernatant was removed and the cells where washed with PBS. TrypLE (Invitrogen) express solution was added (e.g. 1.5 mL per one T75 flask). The flasks were incubated for 3 to 5 min at 37° C. The trypsin was then quenched, e.g., by adding 10 mL DMEM-FBS.
Next, the cells were pelleted using gentle centrifugation without exceeding 90×g centrifugal force. The supernatant was removed and the cell pellet was re-suspended in 600 μL RLT buffer (the RLT buffer was supplemented with beta-mercaptoethanol according to the RNeasy protocol manual) by pipetting up and down until the pellet was completely dissolved […]

SMILES: CCc1nc(C)cn2nc(-c3cc(=O)n4cc(C5CCN(C)CC5)cc(C)c4n3)cc12 [Compound 774]
- RNA abundance modulation (effect on isoform fold increase) (0.3 μM): modulates RNA abundance
- RNA abundance modulation (effect on isoform fold increase) (3 μM): modulates RNA abundance
- FC (x + 1) (TACC1 NM_006283, 3 μM): 1.1645
- L2FC (x + 1) (TACC1 NM_006283, 3 μM): 0.220
- L2abs (Cpd-DMSO) (TACC1 NM_006283, 3 μM): 8.47
- abs (Cpd-DMSO) (TACC1 NM_006283, 3 μM): 354 iFPM
- amp FC (x + 1) (TACC1 NM_006283, 3 μM): 1.16
- ave Cpd (TACC1 NM_006283, 3 μM): 2506 iFPM
- FC (x + 1) (TAF2 NM_003184, 3 μM): 0.4533
- L2FC (x + 1) (TAF2 NM_003184, 3 μM): −1.141
- L2abs (Cpd-DMSO) (TAF2 NM_003184, 3 μM): 9.75
- abs (Cpd-DMSO) (TAF2 NM_003184, 3 μM): 862 iFPM
- amp FC (x + 1) (TAF2 NM_003184, 3 μM): 2.21
- ave Cpd (TAF2 NM_003184, 3 μM): 714 iFPM
- FC (x + 1) (TANC2 AJ278120, 3 μM): 1.0181
- L2FC (x + 1) (TANC2 AJ278120, 3 μM): 0.026
- L2abs (Cpd-DMSO) (TANC2 AJ278120, 3 μM): 1.28
- abs (Cpd-DMSO) (TANC2 AJ278120, 3 μM): 2 iFPM
- amp FC (x + 1) (TANC2 AJ278120, 3 μM): 1.02
- ave Cpd (TANC2 AJ278120, 3 μM): 136 iFPM
- FC (x + 1) (TANC2 AK001077, 3 μM): 4.5130
- L2FC (x + 1) (TANC2 AK001077, 3 μM): 2.174
- L2abs (Cpd-DMSO) (TANC2 AK001077, 3 μM): 1.81
- abs (Cpd-DMSO) (TANC2 AK001077, 3 μM): 4 iFPM
- amp FC (x + 1) (TANC2 AK001077, 3 μM): 4.51
- ave Cpd (TANC2 AK001077, 3 μM): 4 iFPM
- FC (x + 1) (TANC2 AK021886, 3 μM): 0.4015
- L2FC (x + 1) (TANC2 AK021886, 3 μM): −1.317
- L2abs (Cpd-DMSO) (TANC2 AK021886, 3 μM): 2.40
- abs (Cpd-DMSO) (TANC2 AK021886, 3 μM): 5 iFPM
- amp FC (x + 1) (TANC2 AK021886, 3 μM): 2.49
- ave Cpd (TANC2 AK021886, 3 μM): 3 iFPM
- FC (x + 1) (TANC2 BC144357, 3 μM): 0.3363
- L2FC (x + 1) (TANC2 BC144357, 3 μM): −1.572
- L2abs (Cpd-DMSO) (TANC2 BC144357, 3 μM): 8.29
- abs (Cpd-DMSO) (TANC2 BC144357, 3 μM): 313 iFPM
- amp FC (x + 1) (TANC2 BC144357, 3 μM): 2.97
- ave Cpd (TANC2 BC144357, 3 μM): 158 iFPM
- FC (x + 1) (TANC2 NM_025185, 3 μM): 1.0124
- L2FC (x + 1) (TANC2 NM_025185, 3 μM): 0.018
- L2abs (Cpd-DMSO) (TANC2 NM_025185, 3 μM): 4.47
- abs (Cpd-DMSO) (TANC2 NM_025185, 3 μM): 22 iFPM
- amp FC (x + 1) (TANC2 NM_025185, 3 μM): 1.01
- ave Cpd (TANC2 NM_025185, 3 μM): 1812 iFPM
- FC (x + 1) (TARBP1 NM_005646, 3 μM): 0.1192
- L2FC (x + 1) (TARBP1 NM_005646, 3 μM): −3.068
- L2abs (Cpd-DMSO) (TARBP1 NM_005646, 3 μM): 8.52
- abs (Cpd-DMSO) (TARBP1 NM_005646, 3 μM): 367 iFPM
- amp FC (x + 1) (TARBP1 NM_005646, 3 μM): 8.39
- ave Cpd (TARBP1 NM_005646, 3 μM): 49 iFPM
- FC (x + 1) (TBC1D15 AK307922, 3 μM): 1.0252
- L2FC (x + 1) (TBC1D15 AK307922, 3 μM): 0.036
- L2abs (Cpd-DMSO) (TBC1D15 AK307922, 3 μM): 2.70
- abs (Cpd-DMSO) (TBC1D15 AK307922, 3 μM): 6 iFPM
- amp FC (x + 1) (TBC1D15 AK307922, 3 μM): 1.03
- ave Cpd (TBC1D15 AK307922, 3 μM): 263 iFPM
- FC (x + 1) (TBC1D15 NM_022771, 3 μM): 1.1954
- L2FC (x + 1) (TBC1D15 NM_022771, 3 μM): 0.257
- L2abs (Cpd-DMSO) (TBC1D15 NM_022771, 3 μM): 3.99
- abs (Cpd-DMSO) (TBC1D15 NM_022771, 3 μM): 16 iFPM
- amp FC (x + 1) (TBC1D15 NM_022771, 3 μM): 1.20
- ave Cpd (TBC1D15 NM_022771, 3 μM): 96 iFPM
- FC (x + 1) (TBC1D15 NM_001146213, 3 μM): 1.4119
- L2FC (x + 1) (TBC1D15 NM_001146213, 3 μM): 0.498
- L2abs (Cpd-DMSO) (TBC1D15 NM_001146213, 3 μM): 8.07
- abs (Cpd-DMSO) (TBC1D15 NM_001146213, 3 μM): 270 iFPM
- amp FC (x + 1) (TBC1D15 NM_001146213, 3 μM): 1.41
- ave Cpd (TBC1D15 NM_001146213, 3 μM): 923 iFPM
- FC (x + 1) (TBC1D15 NM_001146214, 3 μM): 1.0153
- L2FC (x + 1) (TBC1D15 NM_001146214, 3 μM): 0.022
- L2abs (Cpd-DMSO) (TBC1D15 NM_001146214, 3 μM): −0.65
- abs (Cpd-DMSO) (TBC1D15 NM_001146214, 3 μM): 1 iFPM
- amp FC (x + 1) (TBC1D15 NM_001146214, 3 μM): 1.02
- ave Cpd (TBC1D15 NM_001146214, 3 μM): 41 iFPM
- FC (x + 1) (TBC1D15 NR_027449, 3 μM): 0.1625
